“And” between values parts separate entries of the source, which are not always exact repeats. Equal entries are not always repeated. “Also recorded” adds a separate entry of the source.
Legend:
[1] = test system: P. aeruginosa (PAO1); assay: Pyocyanin assay; type: cell-based, Pseudomonas aeruginosa; settings: for pyocyanin production, single compound screens: MOPS Glutamate and Glucose media, complete or iron/phosphate depleted, 17 h, 100 μM (compounds 1, 2, 3), 25 μM (compound 4), relative to DMSO
Method: A. Pyocyanin Assay Protocol. The amount of pyocyanin in P. aeruginosa culture supernatants was measured following a reported protocol (O'Loughlin et al., 2013) with modifications. A 10 mL overnight culture of P. aeruginosa PAO1 was grown for 16 h. DMSO stock solutions of test compounds (20 mM) were prepared, and 10 μL or 5 μL aliquots were added to sterile 15 mL borosilicate glass test tubes. An inoculating culture was prepared by diluting the overnight culture 1:100 into freshly prepared assay medium (see above), and 2 mL aliquots of this subculture were added to each test tube (0.5% DMSO, final). The cultures were grown for 17 h, and the final cell density measured by reading OD600. Relative pyocyanin levels were measured by first pelleting 1.5 mL of well-mixed culture at 4,000 g for 10 min, transferring 200 μL of the resulting supernatant to a clear, plastic 96-well microtiter plate, and reading absorbance at 695 nm. Media background absorbance (measured from a “no bacteria” control) was subtracted, the resulting values growth normalized by dividing by the final OD600378, and the data plotted relative to a DMSO-treated positive control. B. Rhamnolipid Assay Protocol. Rhamnolipid was quantified following a reported protocol (Koch et al., 1991) with modifications. Assay cultures were prepared and grown in an identical manner to the pyocyanin assay above. Aliquots of the final culture supernatant (1 mL) were transferred to 1 dram glass vials and extracted twice with 1 mL diethyl ether. The pooled organic fractions were evaporated to dryness, and the resulting residue reconstituted in 200 μL de-ionized water. In a 1.7 mL plastic centrifuge tube, 50 μL of this extract was diluted into 450 μL of a solution of 0.19% (w/v) orcinol in 50% (v/v) concentrated H2SO4 (or 20 μL extract into 480 μL orcinol solution for cultures grown in MOPS Glucose medium). The tubes were vortexed thoroughly to mix and incubated in an 80° C. heating block for 30 min. After briefly cooling to room temperature, 200 μL of the resulting yellow to yellow-orange solution was transferred to a clear 96-well microtiter plate, and the absorbance at 421 nm measured. Media background absorbance (measured from a “no bacteria” control) was subtracted, the resulting values growth normalized by dividing by the final OD600, and the data plotted relative to a DMSO-treated positive control. C. Elastase B Assay Protocol. The amount of elastase B in P. aeruginosa culture supernatants was measured following a reported protocol (Geske et al., 2007) with modifications. Assay cultures were prepared and grown in an identical manner to the pyocyanin assay above. Aliquots of the final culture supernatant (50 μL) were added to the wells of a clear, plastic 96-well plate. To each well, 150 μL of 0.5% (w/v) elastin-congo red conjugate (Elastin Products Co.) in Tris buffer (10 mM Tris-HCl, 1 mM CaCl2, pH 7.2) was added. The plate was sealed with a polypropylene storage mat (Costar 3080) and incubated in a 37° C. shaking incubator (200 rpm) attached to a Labquake rotator for 12 h (for experiments in SCFM2) or 24 h (for experiments in MOPS medium). To quantify elastase B activity, the undigested elastin was pelleted by centrifugation of the assay plate at 1,500 g for 10 min, after which 100 μL of the supernatant was transferred to a new, clear 96-well plate, and the absorbance at 490 nm measured. Media background absorbance (measured from a “no bacteria” control) was subtracted, the resulting values growth normalized by dividing by the final OD600, and the data plotted relative to a DMSO-treated positive control.

[2] = test system: P. aeruginosa (PAO1); assay: Rhamnolipid assay; type: cell-based, Pseudomonas aeruginosa; settings: MOPS Glutamate and Glucose media, complete or iron/phosphate depleted, 17 h, 100 μM (compounds 1, 2, 3), 25 μM (compound 4), relative to DMSO
Method: (§1) A. Pyocyanin Assay Protocol. The amount of pyocyanin in P. aeruginosa culture supernatants was measured following a reported protocol (O'Loughlin et al., 2013) with modifications. A 10 mL overnight culture of P. aeruginosa PAO1 was grown for 16 h. DMSO stock solutions of test compounds (20 mM) were prepared, and 10 μL or 5 μL aliquots were added to sterile 15 mL borosilicate glass test tubes. An inoculating culture was prepared by diluting the overnight culture 1:100 into freshly prepared assay medium (see above), and 2 mL aliquots of this subculture were added to each test tube (0.5% DMSO, final). The cultures were grown for 17 h, and the final cell density measured by reading OD600. Relative pyocyanin levels were measured by first pelleting 1.5 mL of well-mixed culture at 4,000 g for 10 min, transferring 200 μL of the resulting supernatant to a clear, plastic 96-well microtiter plate, and reading absorbance at 695 nm. Media background absorbance (measured from a “no bacteria” control) was subtracted, the resulting values growth normalized by dividing by the final OD600378, and the data plotted relative to a DMSO-treated positive control. B. Rhamnolipid Assay Protocol. Rhamnolipid was quantified following a reported protocol (Koch et al., 1991) with modifications. Assay cultures were prepared and grown in an identical manner to the pyocyanin assay above. Aliquots of the final culture supernatant (1 mL) were transferred to 1 dram glass vials and extracted twice with 1 mL diethyl ether. The pooled organic fractions were evaporated to dryness, and the resulting residue reconstituted in 200 μL de-ionized water. […] After briefly cooling to room temperature, 200 μL of the resulting yellow to yellow-orange solution was transferred to a clear 96-well microtiter plate, and the absorbance at 421 nm measured. Media background absorbance (measured from a “no bacteria” control) was subtracted, the resulting values growth normalized by dividing by the final OD600, and the data plotted relative to a DMSO-treated positive control. […] The amount of elastase B in P. aeruginosa culture supernatants was measured following a reported protocol (Geske et al., 2007) with modifications. […] To quantify elastase B activity, the undigested elastin was pelleted by centrifugation of the assay plate at 1,500 g for 10 min, after which 100 μL of the supernatant was transferred to a new, clear 96-well plate, and the absorbance at 490 nm measured. Media background absorbance (measured from a “no bacteria” control) was subtracted, the resulting values growth normalized by dividing by the final OD600, and the data plotted relative to a DMSO-treated positive control.

[3] = test system: P. aeruginosa (PAO1); assay: Elastase B assay; type: cell-based, Pseudomonas aeruginosa; settings: 17 h; for elastase B production, single compound screens: MOPS Glutamate and Glucose media, complete or iron/phosphate depleted, 100 μM (compounds 1, 2, 3), relative to DMSO
Method: as §1

[4] = test system: P. aeruginosa (PAO1); assay: P. aeruginosa growth curves; type: cell-based, Pseudomonas aeruginosa
Method: FIGS. 2A-2D are wild-type P. aeruginosa growth curves in the presence of test compounds in various media. Related to FIGS. 3, 6A and 6B, 7A and 7B, and 12. (FIG. 2A) Growth curves in complete MOPS/Glutamate. (FIG. 2B) Growth curves in complete MOPS/Glucose. […] (FIG. 2D) Growth curves in SCFM2. P. aeruginosa (PAO1) was grown in a manner identical to the pyocyanin assay (see Experimental Procedures). At each time point, growth was measured by either reading OD600 (for MOPS media) or by serially diluting culture aliquots, plating on LB agar, and counting CFUs after overnight incubation at 37° C. (for SCFM2). Compound concentrations are 100 microM for compounds 1, 2, and 3 and 25 microM for compound 4 in all experiments unless noted otherwise. Error bars represent the standard error of at least two biological replicates (n≥2). BHL=N-butyryl L-homoserine lactone (Cayman Chemicals).
B. Bacterial Strains and Growth Conditions. Protocols for construction of genetic knockout strains are described below in Example 2. All reagents for bacterial culture were purchased from Sigma-Aldrich unless indicated otherwise. Bacteria were routinely cultured in Luria-Bertani broth (LB) at 37° C. with shaking at 200 rpm. Freezer stocks of bacterial strains were maintained at −80° C. in 1:1 LB:glycerol. Bacterial growth was routinely assessed by measuring the culture cell density according to absorbance at 600 nm (OD600341). Cell growth in simulated cystic fibrosis sputum medium (SCFM2) was determined by serially diluting assay cultures, plating on LB agar, and counting the number of colony forming units (CFU) appearing after overnight incubation at 37° C.

[5] = molecular target: QscR (Pseudomonas aeruginosa, UniProt G3XD77); type: cell-based; parameters: expressed in transfected cells; host or cells: E. coli JLD271; settings: compounds at 100 mm against 15 nm OdDHL; E. coli reporter strain JLD271/pJN105Q/pSC11-Q; untreated culture = 100%; error ±10%
Excerpt: Construction of pSC11-Q: A 348 bp fragment spanning the upstream region of PA1897 (¢304 to +43 relative to the PA1897 translationalstart codon) was amplified from plasmid pJL101*by using primers 5′-GAATAT GGATCC TCTCTC CGCAGA TACCTG-3′ (BamHI site underlined) SEQ ID NO:5 and 5′-GCTATT GAATTC TGAAGA TGAATA GCGCCAC-3′ (EcoRI site underlined) SEQ ID NO:6. The PCR-generated fragment was digested with EcoRI and BamHI and subsequently ligated into EcoRI/BamHI-digested pPROBE-KT to generate pPROBE-KQ2. […] CGCC-3′ (BamHI site underlined) SEQ ID NO:8. The PCR-generated fragment was digested with SalI and BamHI and subsequently ligated into SalI/BamHI-digested pSC11 to generate pSC11-Q.
E. coli reporter gene assays: Primary assays for RhlR, LasR, and QscR activity in E. coli JLD271 reporter (beta-galactosidase) strains were performed as reported by Welsh et al. 2015, with the following modifications:
For all primary and dose-response antagonism assays, the concentration of native ligand utilized was approximately equal to its EC50 value in each bacterial reporter strain. For RhlR, LasR, and QscR primary antagonism assays, synthetic ligand (100 mm) was screened against BHL (10 mm), OdDHL (2 nm), and OdDHL (15 nm), respectively. For RhlR, LasR, and QscR primary agonism assays, synthetic compound (100 mm) was screened alongside and compared to the natural ligand (900 mm BHL or 100 mm OdDHL) for the receptor. As part of the beta-galactosidase assay protocol, plates to which CPRG substrate had been added were incubated at either 25° C. (LasR assay) or 30° C. (RhlR and QscR assays) until positive control wells developed a deep red color (10 min for LasR, 30 min for RhlR, and 60 min for QscR). Dose-response reporter gene assays were performed according to these protocols by using varying concentrations of compound.

[6] = molecular target: T1, LasR (Pseudomonas aeruginosa, UniProt P25084); assay: E. coli reporter gene primary antagonism assay, LasR; type: cell-based; settings: compounds at 100 mm against 2 nm OdDHL; E. coli beta-galactosidase reporter strain JLD271/pJN105L/pSC11; untreated culture = 100%; negative values indicate receptor agonism; error ±10%
T1 construct: expressed in transfected cells; host or cells: E. coli JLD271
Method: (§2) Percent agonism of a given non-native inducer in a given bacterium and QS system receptor is measured with resepct to the maximum level of agonism (activation) by the native ligand of that receptor in the given bacterium. Percent antagonism is measured in competitive assays. The QS system of interest is activated to 100% with added or endogenous native ligand and the % antagonism of the non-native inducer is assessed with respect to 100% activation by the native inducer. The native ligand which induces LasR is OdDHL, which induces RhlR is BHL and which induces PqsR is PQS. As described herein and in cited references, assays for assessment of % agonism or % atangonism may be performed in E. coli systems (heterologous) or in the bacterium of interest, e.g., Pseudomonas. Dependent upon the assay system employed native ligand may be endogenously present or it may be exogenously supplied to the assay system. […] In antagonism assays using the native strains with functional QS systems, e.g., those of P. aeruginosa, endogenous native ligand is made in the system, so no native ligand is added. In native strains having one or more non-functional QS systems (mutant strains), e.g., P. aeruginosa mutants with non-functional QS systems, native ligand is added at about 10-100× the EC50 of the native ligand. In the agonism assay, native ligand is added as a control. Details of the assays are provided herein in Example 9 and in references cited in Example 9.

[7] = molecular target: T2, RhlR (Pseudomonas aeruginosa, UniProt P54292); assay: P. aeruginosa reporter assay, RhlR antagonism; type: cell-based
T2 construct: expressed in transfected cells; host or cells: E. coli JLD271
Method: (§3) P. aeruginosa reporter assays: Primary assays for RhlR activity in P. aeruginosa were performed as previously reported for LasR, [33] with the following modifications: OdDHL was added to the subculture to a final concentration of 100 nm immediately before it was dispensed into plates to induce expression of RhlR. For RhlR antagonism assays, synthetic ligand (100 mm) was screened against BHL at its EC50 (30 mm). For RhlR agonism assays, synthetic ligand (100 mm) was screened alongside and compared to BHL (at 900 mm) for the system. Dose-response reporter gene assays were performed according to these protocols by using various concentrations of compound.

[8] = molecular target: T2, RhlR; assay: E. coli reporter gene antagonism assay, RhlR; type: cell-based
Method: as §2

[9] = molecular target: T2, RhlR; assay: P. aeruginosa reporter assay, RhlR agonism (native ligand); type: cell-based
Method: as §3

T2 sequence (P54292 whole entry): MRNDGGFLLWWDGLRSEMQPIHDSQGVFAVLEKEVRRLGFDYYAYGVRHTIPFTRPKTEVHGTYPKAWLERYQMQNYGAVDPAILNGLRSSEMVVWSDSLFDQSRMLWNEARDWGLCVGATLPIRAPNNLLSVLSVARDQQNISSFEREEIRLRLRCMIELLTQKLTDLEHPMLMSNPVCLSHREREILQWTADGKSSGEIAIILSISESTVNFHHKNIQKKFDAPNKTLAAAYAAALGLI
T1 sequence (P25084 whole entry): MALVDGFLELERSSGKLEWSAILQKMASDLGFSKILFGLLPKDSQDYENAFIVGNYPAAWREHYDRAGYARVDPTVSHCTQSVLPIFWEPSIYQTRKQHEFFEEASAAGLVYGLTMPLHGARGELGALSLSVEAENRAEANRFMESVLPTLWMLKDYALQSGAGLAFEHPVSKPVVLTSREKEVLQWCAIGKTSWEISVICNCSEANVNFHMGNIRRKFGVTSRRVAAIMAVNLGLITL
Chain of QscR (G3XD77 entry or part of it): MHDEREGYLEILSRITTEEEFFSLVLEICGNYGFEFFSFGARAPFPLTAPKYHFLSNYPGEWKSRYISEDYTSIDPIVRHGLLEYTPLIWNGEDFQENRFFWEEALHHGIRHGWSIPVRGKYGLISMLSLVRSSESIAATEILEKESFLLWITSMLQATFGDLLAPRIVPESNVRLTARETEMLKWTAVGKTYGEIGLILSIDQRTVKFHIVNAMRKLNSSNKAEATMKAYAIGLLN

O=C(CSc1nc2cc([N+](=O)[O-])ccc2[nH]1)Nc1ccc(Oc2ccccc2)cc1 [compound 4, 2-[(6-nitro-1H-benzimidazol-2-yl)-sulfanyl]-N-(4-phenoxyphenyl)acetamide]
pyocyanin production, single compound screens [1]: eliminated pyocyanin synthesis under all conditions tested, even low iron and phosphate
rhamnolipid production, single compound screens [2]: failed to inhibit rhamnolipid production; also recorded: cannot inhibit rhamnolipid
elastase B production in MOPS Glutamate, single compound screen ([3]; MOPS Glutamate, 25 μM compound 4): strong attenuation of elastase B production

CCCCCCCCCC(=O)CC(=O)Nc1ccccc1 [compound 1]
pyocyanin production, single compound screens [1]: strong pyocyanin inhibition, unless phosphate concentrations were low
pyocyanin production over time, low phosphate medium ([1]; MOPS Glutamate with phosphate diluted 10-fold, 100 microM compound 1): does not attenuate pyocyanin production; also recorded: little to no effect
pyocyanin production over time, complete medium ([1]; complete MOPS Glutamate, 100 microM compound 1): eliminated pyocyanin synthesis
effect on cell growth, compound 1 ([4]; MOPS Glutamate, 100 microM compound 1): no effect on cell growth
rhamnolipid production, single compound screens [2]: little to no effect
elastase B production, single compound screens [3]: little to no effect

O=C(COc1ccc(I)cc1)N[C@H]1CCOC1=O [compound 2]
pyocyanin production, single compound screens [1]: strong pyocyanin inhibition, unless phosphate concentrations were low
pyocyanin production in SCFM2, single compound ([1]; SCFM2, 17 h, 100 μM compound 2 alone): did not attenuate pyocyanin
rhamnolipid production, single compound screens [2]: little to no effect
Inhibition [%] QsCR [5]: 18%
Inhibition [%] LasR [6]: −9%
elastase B production, single compound screens [3]: little to no effect

O=C(COc1ccc(I)cc1)N[C@H]1CCSC1=O [RN22]
IC50 ([7]; IC50, antagonism, P. aeruginosa reporter, 95% CI: 19.6 μM-50.4 μM): 31.4 µM and 31 µM
concentration blocking native ligand activity by 50%, relative to native ligand EC50 ([7]; IC50 in P. aeruginosa compared with EC50 of native RhlR ligand): less than 4 fold
IC50 [8]: 19.6 µM

CCCC(=O)N[C@H]1CCOC1=O [BHL, N-butyryl L-homoserine lactone, reference compound]
growth in MOPS Glutamate ([4]; complete MOPS Glutamate, 100 μM): also produced the growth delay
EC50 [9]: ~8 µM

Reference: US10322112B2, “Compound combinations for attenuation of bacterial virulence” (priority 2016, dated 2019)
